Here are results for 12 compounds from ChEMBL document CHEMBL5705908, “Structural and chemical insights into the covalent-allosteric inhibition of the protein kinase Akt” (Chem Sci, 2019).

Calls of active or inactive are those of the source. The calls are words filed in the database; no cut-off is given here.

One test concerns KU-19-19. The experiment in a line: Antiproliferative activity against human KU-19-19 cells assessed as reduction in cell viability incubated for 5 days by celltiter-glo assay. Format: functional, cell-based. As to conditions: KU-19-19, 120 h.
The target in test [1] is RAC-alpha serine/threonine-protein kinase (Homo sapiens) (UniProt P31749). The experiment in a line: Covalent-allosteric inhibition of full length N-terminal his6-tagged AKT (2 to 446 residues) (unknown origin) expressed in Spodoptera frugiperda Sf9 cells assessed as kinact.
For test [2] the target is unchanged. Nature of the test: Covalent-allosteric inhibition of full length N-terminal his6-tagged AKT (2 to 446 residues) (unknown origin) expressed in Spodoptera frugiperda Sf9 cells assessed as kinact/ki ratio.
For another test, the system named is AN3-CA. The experiment in a line: Antiproliferative activity against human AN3-CA cells assessed as reduction in cell viability incubated for 5 days by celltiter-glo assay. Format: functional, cell-based. As to conditions: 120 h.
For a further test, the system named is MCF7. Nature of the test: Antiproliferative activity against human MCF7 cells assessed as reduction in cell viability incubated for 5 days by celltiter-glo assay. As to conditions: MCF7, 120 h. It counts as functional, cell-based.
The next test concerns BT-474. The experiment in a line: Antiproliferative activity against human BT-474 cells assessed as reduction in cell viability incubated for 5 days by celltiter-glo assay. It counts as functional, cell-based. As to conditions: BT-474, 120 h.
Test [3] deals with RAC-alpha serine/threonine-protein kinase (Homo sapiens) (UniProt P31749). The experiment in a line: Covalent-allosteric inhibition of full length N-terminal his6-tagged AKT (2 to 446 residues) (unknown origin) expressed in Spodoptera frugiperda Sf9 cells at 100 uM incubated for 1 hr by Mass spectrometry analysis.

RAC-alpha serine/threonine-protein kinase (Homo sapiens), sequence (P31749 whole entry, the tested form may be a part): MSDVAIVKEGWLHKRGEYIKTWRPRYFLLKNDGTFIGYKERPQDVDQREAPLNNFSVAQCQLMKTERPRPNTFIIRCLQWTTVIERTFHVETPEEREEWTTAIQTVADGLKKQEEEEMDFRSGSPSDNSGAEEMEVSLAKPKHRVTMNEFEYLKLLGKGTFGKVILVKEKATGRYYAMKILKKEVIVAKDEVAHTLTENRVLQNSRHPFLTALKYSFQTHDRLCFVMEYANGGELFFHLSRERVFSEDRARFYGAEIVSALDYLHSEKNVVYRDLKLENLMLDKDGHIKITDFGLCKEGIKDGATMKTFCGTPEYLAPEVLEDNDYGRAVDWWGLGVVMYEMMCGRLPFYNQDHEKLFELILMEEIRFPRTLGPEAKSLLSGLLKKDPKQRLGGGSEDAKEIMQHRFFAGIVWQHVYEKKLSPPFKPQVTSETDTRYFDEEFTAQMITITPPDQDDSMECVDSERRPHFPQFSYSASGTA

Regarding `NC1(C(=O)N[C@@H](CCO)c2ccc(Cl)cc2)CCN(c2nc[nH]c3nccc2-3)CC1` [CAPIVASERTIB], the concentration giving a half-maximal response (EC50) in the test on KU-19-19 was determined as 20.9 µM.
`C=CC(=O)Nc1ccc(C(=O)NC2CCN(Cc3ccc(-c4nc5cc[nH]c(=O)c5cc4-c4ccccc4)cc3)CC2)c(F)c1`: the Kinact in test [1] was 0.085 min⁻¹. Further, in test [2], the Ratio is 0.014 µM⁻¹ s⁻¹.
For `C=CC(=O)Nc1cccc(C(=O)NC2CCN(Cc3ccc(-c4nc5cc[nH]c(=O)c5cc4-c4ccccc4)cc3)CC2)c1`, in the test with KU-19-19, the concentration giving a half-maximal response (EC50) is 14.9 µM.
Turning to `C=CC(=O)Nc1ccc(C(=O)NC2CCN(Cc3ccc(-c4nc5cc[nH]c(=O)c5cc4-c4ccccc4)cc3)CC2)s1`, in test [1], the Kinact was 0.088 min⁻¹. Further, the Ratio in test [2] amounted to 0.038 µM⁻¹ s⁻¹.
Turning to `CN(C)C/C=C/C(=O)Nc1ccc2[nH]c(=O)n(C3CCN(Cc4ccc(-c5nc6cc[nH]c(=O)c6cc5-c5ccccc5)cc4)CC3)c2c1`, the values for the concentration giving a half-maximal response (EC50) with AN3-CA, with MCF7 and in the test on BT-474 were 15.3 µM, 20.3 µM and 12 µM, respectively. For the same compound, the Kinact in test [1] is 0.05 min⁻¹. For the same compound, the Ratio in test [2] was determined as 0.025 µM⁻¹ s⁻¹.
On to `C=CC(=O)Nc1cccc(CNC2CCN(Cc3ccc(-c4nc5cc[nH]c(=O)c5cc4-c4ccccc4)cc3)CC2)c1`, for which, in test [1], the Kinact was found to be 0.071 min⁻¹. Besides, in test [2], the Ratio worked out at 0.004 µM⁻¹ s⁻¹.
As for `CC(C)NC[C@@H](C(=O)N1CCN(c2ncnc3c2[C@H](C)C[C@H]3O)CC1)c1ccc(Cl)cc1` [IPATASERTIB], the EC50 in the test with KU-19-19 turned out to be 24 µM.
In the case of `C=CC(=O)Nc1ccccc1C(=O)NC1CCN(Cc2ccc(-c3nc4cc[nH]c(=O)c4cc3-c3ccccc3)cc2)CC1`, in test [1], the Kinact worked out at 0.138 min⁻¹. Moreover, in test [2], the Ratio worked out at 0.085 µM⁻¹ s⁻¹.
`C=CC(=O)Nc1ccc(C(=O)NC2CCN(Cc3ccc(-c4nc5cc[nH]c(=O)c5cc4-c4ccccc4)cc3)CC2)cc1`: in test [1], the Kinact amounted to 0.042 min⁻¹. In addition, the EC50 in the test with KU-19-19 is 11.3 µM. Further, in test [2], the Ratio came to 0.002 µM⁻¹ s⁻¹.
As for `C=CC(=O)Nc1ccc2[nH]c(=O)n(C3CCN(Cc4ccc(-c5nc6cc[nH]c(=O)c6cc5-c5ccccc5)cc4)CC3)c2c1`, the inhibition result in test [3] is “Active”.
Regarding `C=CC(=O)Nc1cc(Br)cc(C(=O)NC2CCN(Cc3ccc(-c4nc5cc[nH]c(=O)c5cc4-c4ccccc4)cc3)CC2)c1`, the Kinact in test [1] is 0.078 min⁻¹. Moreover, in test [2], the Ratio was 0.168 µM⁻¹ s⁻¹.
As to `C=CC(=O)Nc1ccc2c(c1)n(C1CCN(Cc3ccc(-c4nc5cc[nH]c(=O)c5cc4-c4ccccc4)cc3)CC1)c(=O)n2C`, the Kinact in test [1] was 0.121 min⁻¹. Moreover, the inhibition entry in test [3] was “Active”. The Ratio in test [2] stood at 0.19 µM⁻¹ s⁻¹.
